Measured values reported in patent publication US20230278972A1, “SUBSTITUTED HALOALKYL SULFONANILIDE HERBICIDES” (FMC Corporation, priority 2020, published 2023).

Assays:
Format in all cases: in vivo
[1] = system: blackgrass (Alopecurus myosuroides); experiment: Test A1 preemergence, blackgrass
Summary of the method: (§1)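 Both timings started from seed in a loam-sand blend. Preemergence pots got a directed soil application immediately; postemergence pots were sprayed when seedlings had one or two leaves and stood 2–10 cm. Each compound was prepared in a non-phytotoxic solvent plus surfactant.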

corn (Zea mays) [2] = experiment: Test A1 preemergence, corn
Summary of the method: (§2)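 Postemergence species (ragweed, Palmer pigweed, wild oat) were sprayed at one- to two-leaf stage, 2 to 10 cm tall. Corn was treated preemergence by directed soil spray. Both used a loam soil/sand blend and compounds in a non-phytotoxic solvent mixture with surfactant.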

[3] = system: Foxtail, Giant (giant foxtail, Setaria faberi); experiment: Test A1 preemergence, Foxtail, Giant
Summary of the method: as §1

[4] = system: goosegrass (Eleusine indica); experiment: Test A1 preemergence, goosegrass
Summary of the method: as §1

kochia (Bassia scoparia) [5] = experiment: Test A1 preemergence, kochia
Summary of the method: as §1

[6] = system: Oat, Wild (wild oat, Avena fatua); experiment: Test A1 preemergence, Oat, Wild
Summary of the method: as §1

[7] = system: Pigweed, Palmer (palmer amaranth, palmer pigweed, Amaranthus palmeri); experiment: Test A1 preemergence, Pigweed, Palmer
Summary of the method: as §1

[8] = system: ragweed (common ragweed, Ambrosia artemisiifolia); experiment: Test A1 preemergence, ragweed
Summary of the method: as §1

[9] = system: Ryegrass, Italian (Italian ryegrass, Lolium multiflorum); experiment: Test A1 preemergence, Ryegrass, Italian
Summary of the method: as §1

soybean (Glycine max) [10] = experiment: Test A1 preemergence, soybean
Summary of the method: as §1

[11] = system: wheat (Triticum aestivum); experiment: Test A1 preemergence, wheat
Summary of the method: as §1

[12] = system: blackgrass (Alopecurus myosuroides); experiment: Test A1 postemergence, blackgrass; settings: Postemergence, 0 to 100 scale (0 no effect, 100 complete control)
Summary of the method: (§3)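 Pre: seeds in loam/sand blend, directed soil spray. Post: potted plants, same soil, 2–10 cm, 1–2 leaf stage. Chemicals in non-phytotoxic solvent + surfactant for both.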

corn (Zea mays) [13] = experiment: Test A1 postemergence, corn; settings: Postemergence
Summary of the method: as §1

[14] = system: Foxtail, Giant (giant foxtail, Setaria faberi); experiment: Test A1 postemergence, Foxtail, Giant; settings: Postemergence
Summary of the method: as §3

[15] = system: goosegrass (Eleusine indica); experiment: Test A1 postemergence, goosegrass; settings: Postemergence
Summary of the method: as §3

kochia (Bassia scoparia) [16] = experiment: Test A1 postemergence, kochia; settings: Postemergence
Summary of the method: as §3

[17] = system: Oat, Wild (wild oat, Avena fatua); experiment: Test A1 postemergence, Oat, Wild; settings: Postemergence
Summary of the method: as §2

[18] = system: Pigweed, Palmer (palmer amaranth, palmer pigweed, Amaranthus palmeri); experiment: Test A1 postemergence, Pigweed, Palmer; settings: Postemergence
Summary of the method: as §2

[19] = system: ragweed (common ragweed, Ambrosia artemisiifolia); experiment: Test A1 postemergence, ragweed; settings: Postemergence
Summary of the method: as §2

[20] = system: Ryegrass, Italian (Italian ryegrass, Lolium multiflorum); experiment: Test A1 postemergence, Ryegrass, Italian; settings: Postemergence
Summary of the method: as §3

soybean (Glycine max) [21] = experiment: Test A1 postemergence, soybean; settings: Postemergence
Summary of the method: as §3

[22] = system: wheat (Triticum aestivum); experiment: Test A1 postemergence, wheat; settings: Postemergence
Summary of the method: as §3

[23] = system: galium (catchweed bedstraw, Galium aparine); experiment: Test A1 postemergence, galium; settings: Postemergence
Summary of the method: as §3

[24] = system: horseweed (Erigeron canadensis); experiment: Test A1 postemergence, horseweed; settings: Postemergence
Excerpt: Seeds of plant species selected from, blackgrass (Alopecurus myosuroides), corn (Zea mays), Foxtail, Giant (giant foxtail, Setaria faberi), goosegrass (Eleusine indica), kochia (Bassia scoparia), Oat, Wild (wild oat, Avena fatua), Pigweed, Palmer (palmer amaranth, palmer pigweed, Amaranthus palmeri), ragweed (common ragweed, Ambrosia artemisiifolia), Ryegrass, Italian (Italian ryegrass, Lolium multiflorum), soybean (Glycine max), and wheat (Triticum aestivum) were planted into a blend of loam soil and sand and treated preemergence with a directed soil spray using test chemicals formulated in a non-phytotoxic solvent mixture which included a surfactant. At the same time, plants selected from these crop and weed species and also galium (catchweed bedstraw, Galium aparine) and horseweed (Erigeron canadensis) were planted in pots containing the same blend of loam soil and sand and treated with postemergence applications of test chemicals formulated in the same manner. Plants ranged in height from 2 to 10 cm and were in the one- to two-leaf stage for the postemergence treatment. […] A dash (-) response means no test result.

[25] = system: barnyardgrass (Echinochloa crus-galli); experiment: Test B1 flooded paddy test, barnyardgrass; settings: 250 g ai/ha, Flood, applied to paddy water, 2-leaf stage, visually evaluated after 10 to 14 days
Excerpt: (§4) A dash (-) response means no test result.

[26] = system: ducksalad (Heteranthera limosa); experiment: Test B1 flooded paddy test, ducksalad; settings: 250 g ai/ha, Flood, applied to paddy water, 2-leaf stage, visually evaluated after 10 to 14 days
Excerpt: as §4

rice (Oryza sativa) = experiment: Test B1 flooded paddy test, rice; settings: 250 g ai/ha, Flood, applied to paddy water, 2-leaf stage, visually evaluated after 10 to 14 days
Excerpt: as §4

[27] = 31 g ai/ha, 0 to 100 scale (0 no effect, 100 complete control)
[28] = 125 g ai/ha, 0 to 100 scale, 0 no effect, 100 complete control
[29] = 31 g ai/ha, 0 to 100 scale (0 no effect, 100 complete control), 10 days

SMILES: Cc1cc(C)c(N(C(=O)OC(C)C)S(=O)(=O)C(F)(F)F)cc1C1=NOC2CCCC12 (stereo not drawn) [Compound 295]
- Plant response rating, Blackgrass [1, 27]: 0
- Plant response rating, Blackgrass [1, 28]: 0
- Plant response rating, Corn (corn (Zea mays) [2]; [27]): 0
- Plant response rating, Corn (corn (Zea mays) [2]; [28]): 0
- Plant response rating, Foxtail, Giant [3, 27]: 0
- Plant response rating, Foxtail, Giant [3, 28]: 40
- Plant response rating, Goosegrass [4, 27]: 80
- Plant response rating, Goosegrass [4, 28]: 90
- Plant response rating, Kochia (kochia (Bassia scoparia) [5]; [27]): 0
- Plant response rating, Kochia (kochia (Bassia scoparia) [5]; [28]): 30
- Plant response rating, Oat, Wild [6, 27]: 0
- Plant response rating, Oat, Wild [6, 28]: 0
- Plant response rating, Pigweed, Palmer [7, 27]: 0
- Plant response rating, Pigweed, Palmer [7, 28]: 80
- Plant response rating, Ragweed [8, 27]: 0
- Plant response rating, Ragweed [8, 28]: 0
- Plant response rating, Ryegrass, Italian [9, 27]: 40
- Plant response rating, Ryegrass, Italian [9, 28]: 70
- Plant response rating, Soybean (soybean (Glycine max) [10]; [27]): 0
- Plant response rating, Soybean (soybean (Glycine max) [10]; [28]): 0
- Plant response rating, Wheat [11, 27]: 0
- Plant response rating, Wheat [11, 28]: 30
- Plant response rating, Blackgrass ([12]; 31 g ai/ha, 10 days): 0
- Plant response rating, Blackgrass ([12]; 125 g ai/ha): 0
- Plant response rating, Corn (corn (Zea mays) [13]; [29]): 0
- Plant response rating, Corn (corn (Zea mays) [13]; 125 g ai/ha, 0 to 100 scale): 0
- Plant response rating, Foxtail, Giant [14, 29]: 0
- Plant response rating, Foxtail, Giant ([14]; 125 g ai/ha, 0 to 100 scale): 10
- Plant response rating, Goosegrass [15, 29]: 20
- Plant response rating, Goosegrass ([15]; 125 g ai/ha, 0 to 100 scale): 70
- Plant response rating, Kochia (kochia (Bassia scoparia) [16]; [29]): 0
- Plant response rating, Kochia (kochia (Bassia scoparia) [16]; 125 g ai/ha, 0 to 100 scale): 30
- Plant response rating, Oat, Wild [17, 29]: 0
- Plant response rating, Oat, Wild ([17]; 125 g ai/ha, 0 to 100 scale): 0
- Plant response rating, Pigweed, Palmer [18, 29]: 0
- Plant response rating, Pigweed, Palmer ([18]; 125 g ai/ha, 0 to 100 scale): 30
- Plant response rating, Ragweed [19, 29]: 50
- Plant response rating, Ragweed ([19]; 125 g ai/ha, 0 to 100 scale): 70
- Plant response rating, Ryegrass, Italian [20, 29]: 0
- Plant response rating, Ryegrass, Italian ([20]; 125 g ai/ha, 0 to 100 scale): 30
- Plant response rating, Soybean (soybean (Glycine max) [21]; [29]): 20
- Plant response rating, Soybean (soybean (Glycine max) [21]; 125 g ai/ha, 0 to 100 scale): 50
- Plant response rating, Wheat [22, 29]: 20
- Plant response rating, Wheat ([22]; 125 g ai/ha, 0 to 100 scale): 70
- Plant response rating, Galium [23, 29]: 50
- Plant response rating, Galium ([23]; 125 g ai/ha, 0 to 100 scale): 60
- Plant response rating, Horseweed [24, 29]: 10
- Plant response rating, Horseweed ([24]; 125 g ai/ha, 0 to 100 scale): 50
- Plant response rating, Barnyardgrass (0 to 100 scale, 0 is no effect, 100 is complete control) [25]: 95
- Plant response rating, Ducksalad (0 to 100 scale, 0 is no effect, 100 is complete control) [26]: 0
- Plant response rating, Rice (0 to 100 scale, 0 is no effect, 100 is complete control) (rice (Oryza sativa)): 0

SMILES: Cc1cc(C)c(N(COC(=O)C(C)(C)C)S(=O)(=O)C(F)(F)F)cc1C1=NOC2OCCC12 (stereo not drawn) [Compound 352]
- Plant response rating, Blackgrass [1, 27]: 20
- Plant response rating, Blackgrass [1, 28]: 40
- Plant response rating, Corn (corn (Zea mays) [2]; [27]): 10
- Plant response rating, Corn (corn (Zea mays) [2]; [28]): 50
- Plant response rating, Foxtail, Giant [3, 27]: 30
- Plant response rating, Foxtail, Giant [3, 28]: 100
- Plant response rating, Goosegrass [4, 27]: 90
- Plant response rating, Goosegrass [4, 28]: 100
- Plant response rating, Kochia (kochia (Bassia scoparia) [5]; [27]): 30
- Plant response rating, Kochia (kochia (Bassia scoparia) [5]; [28]): 100
- Plant response rating, Oat, Wild [6, 27]: 0
- Plant response rating, Oat, Wild [6, 28]: 20
- Plant response rating, Pigweed, Palmer [7, 27]: 70
- Plant response rating, Pigweed, Palmer [7, 28]: 100
- Plant response rating, Ragweed [8, 27]: 60
- Plant response rating, Ragweed [8, 28]: 90
- Plant response rating, Ryegrass, Italian [9, 27]: 20
- Plant response rating, Ryegrass, Italian [9, 28]: 100
- Plant response rating, Soybean (soybean (Glycine max) [10]; [27]): 30
- Plant response rating, Soybean (soybean (Glycine max) [10]; [28]): 40
- Plant response rating, Wheat [11, 27]: 10
- Plant response rating, Wheat [11, 28]: 20
- Plant response rating, Blackgrass ([12]; 31 g ai/ha, 10 days): 0
- Plant response rating, Blackgrass ([12]; 125 g ai/ha): 20
- Plant response rating, Corn (corn (Zea mays) [13]; [29]): 20
- Plant response rating, Corn (corn (Zea mays) [13]; 125 g ai/ha, 0 to 100 scale): 80
- Plant response rating, Foxtail, Giant [14, 29]: 20
- Plant response rating, Foxtail, Giant ([14]; 125 g ai/ha, 0 to 100 scale): 70
- Plant response rating, Goosegrass [15, 29]: 80
- Plant response rating, Goosegrass ([15]; 125 g ai/ha, 0 to 100 scale): 90
- Plant response rating, Kochia (kochia (Bassia scoparia) [16]; [29]): 50
- Plant response rating, Kochia (kochia (Bassia scoparia) [16]; 125 g ai/ha, 0 to 100 scale): 70
- Plant response rating, Oat, Wild [17, 29]: 0
- Plant response rating, Oat, Wild ([17]; 125 g ai/ha, 0 to 100 scale): 20
- Plant response rating, Pigweed, Palmer [18, 29]: 20
- Plant response rating, Pigweed, Palmer ([18]; 125 g ai/ha, 0 to 100 scale): 60
- Plant response rating, Ragweed [19, 29]: 70
- Plant response rating, Ragweed ([19]; 125 g ai/ha, 0 to 100 scale): 90
- Plant response rating, Ryegrass, Italian [20, 29]: 0
- Plant response rating, Ryegrass, Italian ([20]; 125 g ai/ha, 0 to 100 scale): 90
- Plant response rating, Soybean (soybean (Glycine max) [21]; [29]): 20
- Plant response rating, Soybean (soybean (Glycine max) [21]; 125 g ai/ha, 0 to 100 scale): 60
- Plant response rating, Wheat [22, 29]: 0
- Plant response rating, Wheat ([22]; 125 g ai/ha, 0 to 100 scale): 50
- Plant response rating, Galium [23, 29]: 100
- Plant response rating, Galium ([23]; 125 g ai/ha, 0 to 100 scale): 100
- Plant response rating, Horseweed [24, 29]: 80
- Plant response rating, Horseweed ([24]; 125 g ai/ha, 0 to 100 scale): 100
- Plant response rating, Barnyardgrass (0 to 100 scale, 0 is no effect, 100 is complete control) [25]: 90
- Plant response rating, Ducksalad (0 to 100 scale, 0 is no effect, 100 is complete control) [26]: 65
- Plant response rating, Rice (0 to 100 scale, 0 is no effect, 100 is complete control) (rice (Oryza sativa)): 35
